Test results taken from ChEMBL document CHEMBL1139296, “Pleuromutilin derivatives having a purine ring. Part 2: influence of the central spacer on the antibacterial activity against Gram-positive pathogens” (2009).

System: Streptococcus pyogenes
Assay: Antimicrobial activity against Streptococcus pyogenes […] by NCCLS method
Assay type: functional

Compound | MIC [µg/mL]
C=C[C@]1(C)C[C@@H](OC(=O)CN2CCN(C(=O)CCn3cnc4c(N5CCC(N)C5)ncnc43)CC2)[C@]2(C)[C@H](C)CC[C@]3(CCC(=O)[C@@H]32)[C@@H](C)[C@@H]1O.Cl.Cl (stereo not given in full) | 0.032
C=C[C@]1(C)C[C@@H](OC(=O)CSC2CCN(C(=O)CCn3cnc4c(N5CCNCC5)nc(N)nc43)C2)[C@]2(C)[C@H](C)CC[C@]3(CCC(=O)[C@@H]32)[C@@H](C)[C@@H]1O.Cl (stereo not given in full) | ≤ 0.004
CC[C@]1(C)C[C@@H](OC(=O)CS(=O)(=O)C2CCN(C(=O)CCn3cnc4c(N5CCC(N)C5)ncnc43)CC2)[C@]2(C)[C@H](C)CC[C@]3(CCC(=O)[C@@H]32)[C@@H](C)[C@@H]1O.Cl (stereo not given in full) | 0.032
C=C[C@]1(C)C[C@@H](OC(=O)CSCC2CN(C(=O)CCn3cnc4c(N5CCNCC5)nc(N)nc43)CCO2)[C@]2(C)[C@H](C)CC[C@]3(CCC(=O)[C@@H]32)[C@@H](C)[C@@H]1O.Cl (stereo not given in full) | 0.032
C=C[C@]1(C)C[C@@H](OC(=O)CSC2CCN(C(=O)CCn3cnc4c(N5CCC(N)C5)ncnc43)CC2)[C@]2(C)[C@H](C)CC[C@]3(CCC(=O)[C@@H]32)[C@@H](C)[C@@H]1O.Cl (stereo not given in full) | 0.016

System: Streptococcus pneumoniae
Assay: Antimicrobial activity against penicillin-resistant Streptococcus pneumoniae KT2524 by NCCLS method
Assay type: functional

Compound | MIC [µg/mL]
C=C[C@]1(C)C[C@@H](OC(=O)CN2CCN(C(=O)CCn3cnc4c(N5CCC(N)C5)ncnc43)CC2)[C@]2(C)[C@H](C)CC[C@]3(CCC(=O)[C@@H]32)[C@@H](C)[C@@H]1O.Cl.Cl (stereo not given in full) | 0.063
C=C[C@]1(C)C[C@@H](OC(=O)CSC2CCN(C(=O)CCn3cnc4c(N5CCNCC5)nc(N)nc43)C2)[C@]2(C)[C@H](C)CC[C@]3(CCC(=O)[C@@H]32)[C@@H](C)[C@@H]1O.Cl (stereo not given in full) | 0.125
CC[C@]1(C)C[C@@H](OC(=O)CS(=O)(=O)C2CCN(C(=O)CCn3cnc4c(N5CCC(N)C5)ncnc43)CC2)[C@]2(C)[C@H](C)CC[C@]3(CCC(=O)[C@@H]32)[C@@H](C)[C@@H]1O.Cl (stereo not given in full) | 0.125
C=C[C@]1(C)C[C@@H](OC(=O)CSCC2CN(C(=O)CCn3cnc4c(N5CCNCC5)nc(N)nc43)CCO2)[C@]2(C)[C@H](C)CC[C@]3(CCC(=O)[C@@H]32)[C@@H](C)[C@@H]1O.Cl (stereo not given in full) | 0.125
C=C[C@]1(C)C[C@@H](OC(=O)CSC2CCN(C(=O)CCn3cnc4c(N5CCC(N)C5)ncnc43)CC2)[C@]2(C)[C@H](C)CC[C@]3(CCC(=O)[C@@H]32)[C@@H](C)[C@@H]1O.Cl (stereo not given in full) | 0.032

System: Staphylococcus aureus
Assay: Antimicrobial activity against methicillin-susceptible Staphylococcus aureus Smith by NCCLS method
Assay type: functional

Compound | MIC [µg/mL]
C=C[C@]1(C)C[C@@H](OC(=O)CN2CCN(C(=O)CCn3cnc4c(N5CCC(N)C5)ncnc43)CC2)[C@]2(C)[C@H](C)CC[C@]3(CCC(=O)[C@@H]32)[C@@H](C)[C@@H]1O.Cl.Cl (stereo not given in full) | 0.25
C=C[C@]1(C)C[C@@H](OC(=O)CSC2CCN(C(=O)CCn3cnc4c(N5CCNCC5)nc(N)nc43)C2)[C@]2(C)[C@H](C)CC[C@]3(CCC(=O)[C@@H]32)[C@@H](C)[C@@H]1O.Cl (stereo not given in full) | 0.25
CC[C@]1(C)C[C@@H](OC(=O)CS(=O)(=O)C2CCN(C(=O)CCn3cnc4c(N5CCC(N)C5)ncnc43)CC2)[C@]2(C)[C@H](C)CC[C@]3(CCC(=O)[C@@H]32)[C@@H](C)[C@@H]1O.Cl (stereo not given in full) | 0.5
C=C[C@]1(C)C[C@@H](OC(=O)CSCC2CN(C(=O)CCn3cnc4c(N5CCNCC5)nc(N)nc43)CCO2)[C@]2(C)[C@H](C)CC[C@]3(CCC(=O)[C@@H]32)[C@@H](C)[C@@H]1O.Cl (stereo not given in full) | 1
C=C[C@]1(C)C[C@@H](OC(=O)CSC2CCN(C(=O)CCn3cnc4c(N5CCC(N)C5)ncnc43)CC2)[C@]2(C)[C@H](C)CC[C@]3(CCC(=O)[C@@H]32)[C@@H](C)[C@@H]1O.Cl (stereo not given in full) | 0.063

System: Staphylococcus aureus
Assay: Antimicrobial activity against methicillin-resistant Staphylococcus aureus KMP9
Assay type: functional

Compound | MIC [µg/mL]
C=C[C@]1(C)C[C@@H](OC(=O)CN2CCN(C(=O)CCn3cnc4c(N5CCC(N)C5)ncnc43)CC2)[C@]2(C)[C@H](C)CC[C@]3(CCC(=O)[C@@H]32)[C@@H](C)[C@@H]1O.Cl.Cl (stereo not given in full) | 0.5
C=C[C@]1(C)C[C@@H](OC(=O)CSC2CCN(C(=O)CCn3cnc4c(N5CCNCC5)nc(N)nc43)C2)[C@]2(C)[C@H](C)CC[C@]3(CCC(=O)[C@@H]32)[C@@H](C)[C@@H]1O.Cl (stereo not given in full) | 1
CC[C@]1(C)C[C@@H](OC(=O)CS(=O)(=O)C2CCN(C(=O)CCn3cnc4c(N5CCC(N)C5)ncnc43)CC2)[C@]2(C)[C@H](C)CC[C@]3(CCC(=O)[C@@H]32)[C@@H](C)[C@@H]1O.Cl (stereo not given in full) | 2
C=C[C@]1(C)C[C@@H](OC(=O)CSCC2CN(C(=O)CCn3cnc4c(N5CCNCC5)nc(N)nc43)CCO2)[C@]2(C)[C@H](C)CC[C@]3(CCC(=O)[C@@H]32)[C@@H](C)[C@@H]1O.Cl (stereo not given in full) | 2
C=C[C@]1(C)C[C@@H](OC(=O)CSC2CCN(C(=O)CCn3cnc4c(N5CCC(N)C5)ncnc43)CC2)[C@]2(C)[C@H](C)CC[C@]3(CCC(=O)[C@@H]32)[C@@H](C)[C@@H]1O.Cl (stereo not given in full) | 0.125

System: Streptococcus pneumoniae
Assay: Antimicrobial activity against penicillin-susceptible Streptococcus pneumoniae ATCC 49619 by NCCLS method
Assay type: functional

Compound | MIC [µg/mL]
C=C[C@]1(C)C[C@@H](OC(=O)CN2CCN(C(=O)CCn3cnc4c(N5CCC(N)C5)ncnc43)CC2)[C@]2(C)[C@H](C)CC[C@]3(CCC(=O)[C@@H]32)[C@@H](C)[C@@H]1O.Cl.Cl (stereo not given in full) | 0.063
C=C[C@]1(C)C[C@@H](OC(=O)CSC2CCN(C(=O)CCn3cnc4c(N5CCNCC5)nc(N)nc43)C2)[C@]2(C)[C@H](C)CC[C@]3(CCC(=O)[C@@H]32)[C@@H](C)[C@@H]1O.Cl (stereo not given in full) | 0.063
CC[C@]1(C)C[C@@H](OC(=O)CS(=O)(=O)C2CCN(C(=O)CCn3cnc4c(N5CCC(N)C5)ncnc43)CC2)[C@]2(C)[C@H](C)CC[C@]3(CCC(=O)[C@@H]32)[C@@H](C)[C@@H]1O.Cl (stereo not given in full) | 0.063
C=C[C@]1(C)C[C@@H](OC(=O)CSCC2CN(C(=O)CCn3cnc4c(N5CCNCC5)nc(N)nc43)CCO2)[C@]2(C)[C@H](C)CC[C@]3(CCC(=O)[C@@H]32)[C@@H](C)[C@@H]1O.Cl (stereo not given in full) | 0.063
C=C[C@]1(C)C[C@@H](OC(=O)CSC2CCN(C(=O)CCn3cnc4c(N5CCC(N)C5)ncnc43)CC2)[C@]2(C)[C@H](C)CC[C@]3(CCC(=O)[C@@H]32)[C@@H](C)[C@@H]1O.Cl (stereo not given in full) | 0.016

System: Enterococcus faecium
Assay: Antimicrobial activity against vancomycin-resistant Enterococcus faecium KU1778 by NCCLS method
Assay type: functional

Compound | MIC [µg/mL]
C=C[C@]1(C)C[C@@H](OC(=O)CN2CCN(C(=O)CCn3cnc4c(N5CCC(N)C5)ncnc43)CC2)[C@]2(C)[C@H](C)CC[C@]3(CCC(=O)[C@@H]32)[C@@H](C)[C@@H]1O.Cl.Cl (stereo not given in full) | 0.5
C=C[C@]1(C)C[C@@H](OC(=O)CSC2CCN(C(=O)CCn3cnc4c(N5CCNCC5)nc(N)nc43)C2)[C@]2(C)[C@H](C)CC[C@]3(CCC(=O)[C@@H]32)[C@@H](C)[C@@H]1O.Cl (stereo not given in full) | 0.25
CC[C@]1(C)C[C@@H](OC(=O)CS(=O)(=O)C2CCN(C(=O)CCn3cnc4c(N5CCC(N)C5)ncnc43)CC2)[C@]2(C)[C@H](C)CC[C@]3(CCC(=O)[C@@H]32)[C@@H](C)[C@@H]1O.Cl (stereo not given in full) | 1
C=C[C@]1(C)C[C@@H](OC(=O)CSCC2CN(C(=O)CCn3cnc4c(N5CCNCC5)nc(N)nc43)CCO2)[C@]2(C)[C@H](C)CC[C@]3(CCC(=O)[C@@H]32)[C@@H](C)[C@@H]1O.Cl (stereo not given in full) | 0.5
C=C[C@]1(C)C[C@@H](OC(=O)CSC2CCN(C(=O)CCn3cnc4c(N5CCC(N)C5)ncnc43)CC2)[C@]2(C)[C@H](C)CC[C@]3(CCC(=O)[C@@H]32)[C@@H](C)[C@@H]1O.Cl (stereo not given in full) | 0.032

System: Moraxella catarrhalis
Assay: Antimicrobial activity against Moraxella catarrhalis K1209 by NCCLS method
Assay type: functional

Compound | MIC [µg/mL]
C=C[C@]1(C)C[C@@H](OC(=O)CN2CCN(C(=O)CCn3cnc4c(N5CCC(N)C5)ncnc43)CC2)[C@]2(C)[C@H](C)CC[C@]3(CCC(=O)[C@@H]32)[C@@H](C)[C@@H]1O.Cl.Cl (stereo not given in full) | 0.25
C=C[C@]1(C)C[C@@H](OC(=O)CSC2CCN(C(=O)CCn3cnc4c(N5CCNCC5)nc(N)nc43)C2)[C@]2(C)[C@H](C)CC[C@]3(CCC(=O)[C@@H]32)[C@@H](C)[C@@H]1O.Cl (stereo not given in full) | 0.125
CC[C@]1(C)C[C@@H](OC(=O)CS(=O)(=O)C2CCN(C(=O)CCn3cnc4c(N5CCC(N)C5)ncnc43)CC2)[C@]2(C)[C@H](C)CC[C@]3(CCC(=O)[C@@H]32)[C@@H](C)[C@@H]1O.Cl (stereo not given in full) | 0.125
C=C[C@]1(C)C[C@@H](OC(=O)CSCC2CN(C(=O)CCn3cnc4c(N5CCNCC5)nc(N)nc43)CCO2)[C@]2(C)[C@H](C)CC[C@]3(CCC(=O)[C@@H]32)[C@@H](C)[C@@H]1O.Cl (stereo not given in full) | 0.25
C=C[C@]1(C)C[C@@H](OC(=O)CSC2CCN(C(=O)CCn3cnc4c(N5CCC(N)C5)ncnc43)CC2)[C@]2(C)[C@H](C)CC[C@]3(CCC(=O)[C@@H]32)[C@@H](C)[C@@H]1O.Cl (stereo not given in full) | 0.032

System: Haemophilus influenzae
Assay: Antimicrobial activity against Haemophilus influenzae TH13 by NCCLS method
Assay type: functional

Compound | MIC [µg/mL]
C=C[C@]1(C)C[C@@H](OC(=O)CN2CCN(C(=O)CCn3cnc4c(N5CCC(N)C5)ncnc43)CC2)[C@]2(C)[C@H](C)CC[C@]3(CCC(=O)[C@@H]32)[C@@H](C)[C@@H]1O.Cl.Cl (stereo not given in full) | 4
C=C[C@]1(C)C[C@@H](OC(=O)CSC2CCN(C(=O)CCn3cnc4c(N5CCNCC5)nc(N)nc43)C2)[C@]2(C)[C@H](C)CC[C@]3(CCC(=O)[C@@H]32)[C@@H](C)[C@@H]1O.Cl (stereo not given in full) | 1
CC[C@]1(C)C[C@@H](OC(=O)CS(=O)(=O)C2CCN(C(=O)CCn3cnc4c(N5CCC(N)C5)ncnc43)CC2)[C@]2(C)[C@H](C)CC[C@]3(CCC(=O)[C@@H]32)[C@@H](C)[C@@H]1O.Cl (stereo not given in full) | 4
C=C[C@]1(C)C[C@@H](OC(=O)CSCC2CN(C(=O)CCn3cnc4c(N5CCNCC5)nc(N)nc43)CCO2)[C@]2(C)[C@H](C)CC[C@]3(CCC(=O)[C@@H]32)[C@@H](C)[C@@H]1O.Cl (stereo not given in full) | 8
C=C[C@]1(C)C[C@@H](OC(=O)CSC2CCN(C(=O)CCn3cnc4c(N5CCC(N)C5)ncnc43)CC2)[C@]2(C)[C@H](C)CC[C@]3(CCC(=O)[C@@H]32)[C@@H](C)[C@@H]1O.Cl (stereo not given in full) | 1

System: Staphylococcus aureus
Assay: Antimicrobial activity against methicillin-susceptible Staphylococcus aureus infected mouse assessed as survival rate administered iv after 1 hr of infection
Assay type: functional

Compound | ED50 [mg/kg]
C=C[C@]1(C)C[C@@H](OC(=O)CN2CCN(C(=O)CCn3cnc4c(N5CCC(N)C5)ncnc43)CC2)[C@]2(C)[C@H](C)CC[C@]3(CCC(=O)[C@@H]32)[C@@H](C)[C@@H]1O.Cl.Cl (stereo not given in full) | 0.8
C=C[C@]1(C)C[C@@H](OC(=O)CSC2CCN(C(=O)CCn3cnc4c(N5CCNCC5)nc(N)nc43)C2)[C@]2(C)[C@H](C)CC[C@]3(CCC(=O)[C@@H]32)[C@@H](C)[C@@H]1O.Cl (stereo not given in full) | 2.61
CC[C@]1(C)C[C@@H](OC(=O)CS(=O)(=O)C2CCN(C(=O)CCn3cnc4c(N5CCC(N)C5)ncnc43)CC2)[C@]2(C)[C@H](C)CC[C@]3(CCC(=O)[C@@H]32)[C@@H](C)[C@@H]1O.Cl (stereo not given in full) | 1.79
C=C[C@]1(C)C[C@@H](OC(=O)CSCC2CN(C(=O)CCn3cnc4c(N5CCNCC5)nc(N)nc43)CCO2)[C@]2(C)[C@H](C)CC[C@]3(CCC(=O)[C@@H]32)[C@@H](C)[C@@H]1O.Cl (stereo not given in full) | 4.81
C=C[C@]1(C)C[C@@H](OC(=O)CSC2CCN(C(=O)CCn3cnc4c(N5CCC(N)C5)ncnc43)CC2)[C@]2(C)[C@H](C)CC[C@]3(CCC(=O)[C@@H]32)[C@@H](C)[C@@H]1O.Cl (stereo not given in full) | 1.47
